# Measured values taken from patent publication US12152017B2, “Ketoamide compound and preparation method, pharmaceutical composition, and use thereof” (Shanghai Institute of Materia Medica, Chinese Academy of …, priority 2018, dated 2024).
# Several values for one entry are separate records, joined by “and”; a condition that tells them apart may be missing. Identical values can stand only once. Like-named read-outs stand apart in the source and are kept apart here.
# Tests used:
# [1] = Pharmacokinetic study in CD-1 mice (gavage, intravenous, intraperitoneal); assay type: in vivo; details: 20 mg/kg; for Cmax / Tmax / half-life / AUC(0-inf) / AUC(0-t) / MRT inf: male, CD-1, mouse, plasma; for AUC(0-inf): read-out: AUC INF_obs; for MRT inf: read-out: MRT INF_obs
# Description: Nine CD-1 mice, male, weighing 18-22 g, were randomly divided into 3 groups with 3 mice in each group. The test compounds were administered by gavage, intravenously and intraperitoneally according to the following schemes.
# Before the test, they were fasted for 12 hours and were allowed to drink water freely, and were fed uniformly 2 h after administration.
# There were 3 animals at each time point.
# The solution for gavage administration was formulated with DMSO/0.5% HPMC (5/95, v/v) into the final concentration. Intravenous and intraperitoneal administration were formulated with DMSO/PEG300/EtOH/NaCl (5/40/5/50, v/v/v). Retention samples of the dosing solution (50 μL of the drug solution was taken and mixed well with 50 μL of DMSO before and after the administration) for testing.
# The drug was administered according to the above dosage, the time of administration were recorded, and 20 μL of blood was collected from the mouse femoral plexus at the above set time point and placed in a heparinized test tube and centrifuged immediately at 11000 rpm for 5 min. 10 μL of plasma was immediately and accurately drawn into a centrifuge tube pre-filled with 100 μL of PK-IS solution (prepared with methanol:acetonitrile (1:1, v/v)), mixed well, and frozen to store at −20° C. for testing.
# MERS-CoV pseudovirus = experiment: microbe, parasite or virus in culture; assay type: cell-based; details: Middle East respiratory syndrome-related coronavirus, Huh-7, read-out: MERS-CoV pseudovirus inhibitory activity IC50
# [2] = i.p. (20 mg/Kg per Table 3), individual animal
# [3] = ip, i.p. (20 mg/Kg per Table 3), Mean of 3 mice
# [4] = ip, i.p. (20 mg/Kg per Table 3), Mean of 3 mice, read-out: AUC last (exposure for intraperitoneal injection)
# [5] = ip, i.p. (20 mg/Kg per Table 3), individual animal
# [6] = ip, i.p. (20 mg/Kg per Table 3), individual animal, read-out: AUC last
# [7] = po, p.o. (gavage 20 mg/Kg per Table 3), Mean of 3 mice
# [8] = po, p.o. (gavage 20 mg/Kg per Table 3), Mean of 3 mice, read-out: AUC last (oral exposure)
# [9] = po, p.o. (gavage 20 mg/Kg per Table 3), individual animal
# [10] = p.o. (gavage 20 mg/Kg per Table 3), individual animal
structure (smiles),measurement,setting,value
"O=C(NCc1ccccc1)C(=O)[C@H](C[C@@H]1CCNC1=O)NC(=O)[C@H](CC1CCCCC1)NC(=O)c1cc2ccccc2o1 [Example A9, N—((S)-1-(((S)-4-(benzylamino)-3,4-dione-1-((S)-2-oxopyrrolidine-3-yl)but-2-yl)amino)-3-cyclohexyl-1-oxopropan-2-yl)-benzofuran-2-carboxamide]",AUC INF_obs,[1]; [2],6825 ng·h/mL and 10574 ng·h/mL
same,AUC last,[1]; [2],6786 ng·h/mL and 10138 ng·h/mL
same,C max,[1]; [2],2859 ng/mL and 2364 ng/mL
same,MRT INF_obs,[1]; [2],2.70 h and 3.19 h and 6.07 h
same,T1/2,[1]; [2],3.67 h and 5.11 h
same,T max,[1]; [2],0.75 h
same,Cmax,[1]; [3],2910 ng/mL
same,Tmax,[1]; [3],0.42 h
same,half-life,[1]; [3],4.02 h
same,AUC(0-inf),[1]; [3],8360 ng·h/mL
same,AUC(0-t),[1]; [4],8190 ng·h/mL
same,MRT inf,[1]; [3],3.99 h
same,Cmax,[1]; [5],3520 ng/mL
same,half-life,[1]; [5],3.28 h
same,AUC(0-inf),[1]; [5],7670 ng·h/mL
same,AUC(0-t),[1]; [6],7650 ng·h/mL
same,Cmax,[1]; [7],498 ng/mL
same,Tmax,[1]; [7],0.25 h
same,half-life,[1]; [7],1.27 h
same,AUC(0-inf),[1]; [7],589 ng·h/mL
same,AUC(0-t),[1]; [8],584 ng·h/mL
same,MRT inf,[1]; [7],1.77 h
same,Tmax,[1]; [9],0.25 h
same,half-life,[1]; [9],1.13 h
same,MRT inf,[1]; [9],1.35 h
same,AUC INF_obs,[1]; [10],451 ng·h/mL and 1146 ng·h/mL and 171 ng·h/mL
same,AUC last,[1]; [10],447 ng·h/mL and 1143 ng·h/mL and 163 ng·h/mL
same,C max,[1]; [10],546 ng/mL and 864 ng/mL and 84 ng/mL
same,MRT INF_obs,[1]; [10],1.33 h and 2.63 h
same,T1/2,[1]; [10],0.91 h and 1.77 h
same,IC50,MERS-CoV pseudovirus,1 ± 0.7 nM
"O=C(NCc1ccccc1)C(=O)[C@H](C[C@@H]1CCNC1=O)NC(=O)[C@H](CC1CCCCC1)NC(=O)c1ccc2ccccc2n1 [Example A42, N—((S)-1-(((S)-4-(benzylamino)-3,4-dione-1-((S)-2-oxopyrrolidine-3-yl)but-2-yl)amino)-3-cyclohexyl-1-oxopropan-2-yl)-quinoline-2-carboxamide]",AUC INF_obs,[1]; [2],10647 ng·h/mL and 11768 ng·h/mL
same,AUC last,[1]; [2],10576 ng·h/mL and 11340 ng·h/mL
same,C max,[1]; [2],3959 ng/mL and 5038 ng/mL
same,MRT INF_obs,[1]; [2],3.41 h and 4.99 h
same,T1/2,[1]; [2],3.67 h and 6.20 h
same,Cmax,[1]; [3],4280 ng/mL
same,Tmax,[1]; [3],0.25 h
same,half-life,[1]; [3],5.46 h
same,AUC(0-inf),[1]; [3],12000 ng·h/mL
same,MRT inf,[1]; [3],4.93 h
same,Cmax,[1]; [5],3840 ng/mL
same,Tmax,[1]; [5],0.25 h
same,half-life,[1]; [5],6.52 h
same,AUC(0-inf),[1]; [5],13700 ng·h/mL
same,AUC(0-t),[1]; [6],13000 ng·h/mL
same,MRT inf,[1]; [5],6.38 h
same,Cmax,[1]; [7],858 ng/mL
same,Tmax,[1]; [7],0.25 h
same,half-life,[1]; [7],5.81 h
same,AUC(0-inf),[1]; [7],750 ng·h/mL
same,AUC(0-t),[1]; [8],742 ng·h/mL
same,MRT inf,[1]; [7],2.3 h
same,Cmax,[1]; [9],1020 ng/mL
same,Tmax,[1]; [9],0.25 h
same,half-life,[1]; [9],4.19 h
same,AUC(0-inf),[1]; [9],791 ng·h/mL
same,AUC(0-t),"[1]; po, p.o. (gavage 20 mg/Kg per Table 3), individual animal, read-out: AUC last",787 ng·h/mL
same,MRT inf,[1]; [9],1.98 h
same,AUC INF_obs,[1]; [10],953 ng·h/mL and 506 ng·h/mL
same,AUC last,[1]; [10],945 ng·h/mL and 494 ng·h/mL
same,C max,[1]; [10],966 ng/mL and 588 ng/mL
same,MRT INF_obs,[1]; [10],2.10 h and 2.83 h
same,T1/2,[1]; [10],5.52 h and 7.73 h
same,IC50,MERS-CoV pseudovirus,3.2 ± 0.6 nM
Cc1cnc(C(=O)N[C@@H](CC2CCCCC2)C(=O)N[C@@H](C[C@@H]2CCCNC2=O)C(=O)C(=O)NCc2ccccc2)o1 [Example A241],AUC INF_obs,[1]; [2],3524 ng·h/mL and 4121 ng·h/mL
same,AUC last,[1]; [2],3514 ng·h/mL and 4100 ng·h/mL
same,C max,[1]; [2],4206 ng/mL and 4836 ng/mL
same,MRT INF_obs,[1]; [2],1.37 h and 1.50 h
same,T1/2,[1]; [2],3.59 h and 4.72 h
same,T max,[1]; [2],0.05 h
same,Cmax,[1]; [3],4660 ng/mL
same,Tmax,[1]; [3],0.18 h
same,half-life,[1]; [3],4.36 h
same,AUC(0-inf),[1]; [3],4180 ng·h/mL
same,AUC(0-t),[1]; [4],4160 ng·h/mL
same,MRT inf,[1]; [3],1.44 h
same,Cmax,[1]; [5],4930 ng/mL
same,half-life,[1]; [5],4.78 h
same,AUC(0-inf),[1]; [5],4900 ng·h/mL
same,AUC(0-t),[1]; [6],4870 ng·h/mL
same,MRT inf,[1]; [5],1.44 h
same,Cmax,[1]; [7],767 ng/mL
same,Tmax,[1]; [7],0.25 h
same,half-life,[1]; [7],4.22 h
same,AUC(0-inf),[1]; [7],665 ng·h/mL
same,AUC(0-t),[1]; [8],663 ng·h/mL
same,MRT inf,[1]; [7],1.82 h
same,Cmax,[1]; [9],707 ng/mL
same,Tmax,[1]; [9],0.25 h
same,half-life,[1]; [9],3.84 h
same,MRT inf,[1]; [9],2.12 h
same,AUC INF_obs,[1]; [10],469 ng·h/mL and 947 ng·h/mL and 579 ng·h/mL
same,AUC last,[1]; [10],467 ng·h/mL and 945 ng·h/mL and 576 ng·h/mL
same,C max,[1]; [10],942 ng/mL and 651 ng/mL
same,MRT INF_obs,[1]; [10],1.68 h and 1.64 h
same,T1/2,[1]; [10],3.85 h and 4.96 h
same,IC50,MERS-CoV pseudovirus,2.5 ± 1.3 nM
